Target: T1, P2X4 receptor (Homo sapiens, UniProt Q99571)
T1 construct: expressed in transfected cells; host or cells: 1321N1 astrocytoma cells, retroviral vector pQCXIN, G418 selection, monoclones
T1 sequence (Q99571 1-388): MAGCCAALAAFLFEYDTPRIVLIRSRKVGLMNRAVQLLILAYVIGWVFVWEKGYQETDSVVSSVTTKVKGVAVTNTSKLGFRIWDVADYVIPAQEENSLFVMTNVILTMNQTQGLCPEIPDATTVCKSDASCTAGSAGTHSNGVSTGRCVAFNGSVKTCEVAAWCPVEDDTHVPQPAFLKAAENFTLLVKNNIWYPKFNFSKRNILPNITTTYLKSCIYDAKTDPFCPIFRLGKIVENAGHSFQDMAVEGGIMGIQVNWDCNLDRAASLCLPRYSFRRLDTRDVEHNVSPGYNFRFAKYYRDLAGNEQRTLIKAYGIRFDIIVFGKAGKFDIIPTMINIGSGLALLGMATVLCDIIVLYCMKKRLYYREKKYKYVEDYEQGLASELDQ
Assay: Measurement of Ca2+ influx in transfected 1321N1 astrocytoma cells (P2X4 inhibitory potency)
Assay type: cell-based
Details: agonist-mediated Ca2+ influx, FLUO-4, 1321N1 astrocytoma cells; antagonists added 30 min before agonist
From the text: The rat, mouse, and human P2X4 DNA, respectively, were cloned into the retroviral vector pQCXIN. 1321N1 Astrocytoma cells were transfected with the DNA using a retroviral system as described previously. In brief, GP+envAM12 packaging cells were first transiently co-transfected with a retroviral vector to generate the retrovirus and with a vesicular stomatitis virus G protein (VSV-G) to pseudotype the virus and to increase their infection efficiency. The viruses containing the rat, mouse or human P2X4 receptor sequence were then used to create a stable astrocytoma cell line. P2X4 receptor-expressing cells were selected with G418 ([…]).
The selection of monoclones for rat and human P2X4 receptors was performed using the limited dilution method by plating the cells at very low cell densities (1 cell clone per well in 96-well plates). Cells were counted, and then several dilutions were made to obtain a concentration of […]. We subsequently added 100 µL of the diluted cell suspension into each well expecting to obtain on average 1 cell per well. After a few days the wells that contained single clones were labeled and transferred into 24 well plates. More than 20 clones were selected for each cell line and characterized in calcium influx assay.
Measurement of Ca^2+ influx in transfected 1321N1 astrocytoma cells
P2X receptor function was determined on the basis of agonist-mediated increases in cytosolic Ca^2+ concentration. The fluorescent Ca^2+chelating dye FLUO-4 was used as an indicator of the relative levels of intracellular Ca^2+ in a 96-well format using a fluorescence imaging plate reader (Novostar, BMG, Germany). Cells were grown to confluence in 96-well black-walled tissue culture plates and loaded with FLUO-4 AM ([…]) in Hank's balanced salt solution (HBSS, containing 10 mM HEPES, pH 7.3, and 1% Pluronic® F127) for 1 h at 23° C. After incubation, the loaded cells were washed with the same buffer to remove extracellular FLUO-4 AM. Compound solutions were prepared in HBSS (containing 20 mM HEPES, pH 7.3) or DMSO depending on their solubility. […] Fluorescence intensity was measured at 520 nm for 30 s at 0.4 s intervals. Buffer or test compounds were injected sequentially into separate wells using the automatic pipetting device. At least three independent experiments were performed in triplicate or duplicate. Antagonists were added 30 min before the addition of agonists. The assays were performed in a final volume of 200 μL. Compounds were tested at 7-8 different concentrations spanning three orders of magnitude of concentrations. Statistical significances were calculated using the unpaired two-tailed t-test.

Cc1nsc(-c2ccc(C)c(NCC(=O)N3CC(CCO)c4ccccc43)c2)n1 (stereo not shown) [Example 58, 1-(3-(2-hydroxyethyl)indolin-1-yl)-2-((2-methyl-5-(3-methyl-1,2,4-thiadiazol-5-yl)phenyl)amino)ethan-1-one]
IC50: > 0.1 µM

CCc1noc(-c2cc(NCC(=O)c3c[nH]c4cc(OC)c(Br)cc34)c(OC)cc2Br)n1 [Example 108, 2-(4-bromo-5-(3-ethyl-1,2,4-oxadiazol-5-yl)-2-methoxyphenylamino)-1-(5-bromo-6-methoxy-1H-indol-3-yl) ethanone]
IC50: 0.07 to 0.099 µM

CCc1nsc(-c2ccc(C)c(NCC(=O)N3CCc4c(NS(C)(=O)=O)cccc43)c2)n1 [Example 20, N-(1-((5-(3-ethyl-1,2,4-thiadiazol-5-yl)-2-methylphenyl)glycyl)indolin-4-yl) methanesulfonamide]
IC50: 0.0001 to 0.019 µM

CCc1noc(-c2ccc(OC)c(NCC(=O)N3CCc4ccc(C(F)(F)F)cc43)c2)n1 [Example 7, 2-(5-(3-ethyl-1,2,4-oxadiazol-5-yl)-2-methoxyphenylamino)-1-(6-(trifluoromethyl)indolin-1-yl)ethanone]
IC50: > 0.1 µM

2-((2-methyl-5-(3-methyl- 1,2,4-oxadiazol-5-yl) phenyl)amino)-1-(1H- pyrrolo[2,3-b]pyridin-3- yl)ethan-1-one [Example 107]
IC50: 0.07 to 0.099 µM

Cc1noc(-c2ccc(C)c(NCC(=O)N3CCc4c(OCC(C)(C)O)cccc43)c2)n1 [Example 49, 1-(4-(2-hydroxy-2-methylpropoxy)indolin-1-yl)-2-((2-methyl-5-(3-methyl-1,2,4-oxadiazol-5-yl)phenyl)amino)ethan-1-one]
IC50: 0.04 to 0.069 µM

Cc1ccc(-c2ccc(Cl)cn2)cc1NCC(=O)N1CCc2c(OCC(C)(C)O)cccc21 [Example 115, 2-((5-(5-chloropyridin-2-yl)-2-methylphenyl)amino)-1-(4-(2-hydroxy-2-methyl-propoxy)-indolin-1-yl)ethan-1-one]
IC50: 0.04 to 0.069 µM

Cc1ccc(-c2ccc(C)c(NCC(=O)N3CCc4c(OCC(C)(C)O)cccc43)c2)nc1 [Example 117, 1-(4-(2-hydroxy-2-methylpropoxy)indolin-1-yl)-2-((2-methyl-5-(5-methylpyridin-2-yl)phenyl)amino)ethan-1-one]
IC50: 0.04 to 0.069 µM

CCc1noc(-c2ccc(F)c(NCC(=O)N3CCc4cc(OC)c(F)cc43)c2)n1 [Example 3, 2-((5-(3-ethyl-1,2,4-oxadiazol-5-yl)-2-fluorophenyl)amino)-1-(6-fluoro-5-methoxyindolin-1-yl)ethan-1-one]
IC50: 0.02 to 0.039 µM

Cc1noc(-c2ccc(F)c(NCC(=O)N3CCc4c3cccc4C(C)(C)O)c2)n1 [Example 53, 2-((2-fluoro-5-(3-methyl-1,2,4-oxadiazol-5-yl)phenyl)amino)-1-(4-(2-hydroxypropan-2-yl)-indolin-1-yl)ethan-1-one]
IC50: 0.02 to 0.039 µM

Cc1ccc(-c2ccc(C(C)C)cn2)cc1NCC(=O)N1CCc2c(OCCOCCO)cccc21 [Example 113, 1-(4-(2-(2-hydroxyethoxy)ethoxy)indolin-1-yl)-2-((5-(5-isopropylpyridin-2-yl)-2-methylphenyl)amino) ethan-1-one]
IC50: 0.04 to 0.069 µM

Cc1nsc(-c2ccc(C)c(NCC(=O)N3CCc4c(O)cccc43)c2)n1 [Example 85, 1-(4-hydroxyindolin-1-yl)-2-((2-methyl-5-(3-methyl-1,2,4-thiadiazol-5-yl)phenyl)-amino)ethan-1-one]
IC50: 0.0001 to 0.019 µM

CC(=O)Nc1cccc2c1CCN2C(=O)CNc1cc(-c2nc(C)ns2)ccc1C [Example 76, N-(1-((2-methyl-5-(3-methyl-1,2,4-thiadiazol-5-yl)phenyl)-glycyl)indolin-4-yl) acetamide]
IC50: 0.0001 to 0.019 µM

Cc1nsc(-c2ccc(C)c(NCC(=O)N3CCc4c(OCCC(C)(C)O)cccc43)c2)n1 [Example 30, 1-(4-(3-hydroxy-3-methylbutoxy)indolin-1-yl)-2-((2-methyl-5-(3-methyl-1,2,4-thiadiazol-5-yl)phenyl)amino)ethan-1-one]
IC50: 0.0001 to 0.019 µM

COc1ccc(-c2cc(C)c(C)cn2)cc1NCC(=O)N1CCc2c(O)cccc21 [Example 121, 2-((5-(4,5-dimethyl-pyridin-2-yl)-2-methoxyphenyl)amino)-1-(4-hydroxyindolin-1-yl) ethan-1-one]
IC50: > 0.1 µM

COc1cccc2c1CCN2C(=O)CNc1cc(-c2nc(C)ns2)cc(F)c1OC [Example 8, 2-((3-fluoro-2-methoxy-5-(3-methyl-1,2,4-thiadiazol-5-yl)phenyl)amino)-1-(4-methoxyindolin-1-yl) ethan-1-one]
IC50: 0.07 to 0.099 µM

Cc1ccc(-c2ccc(C)c(NCC(=O)N3CCc4c(CO)cccc43)c2)nc1 [Example 116, 1-(4-(hydroxymethyl)indolin-1-yl)-2-((2-methyl-5-(5-methylpyridin-2-yl)phenyl)amino)ethan-1-one]
IC50: 0.07 to 0.099 µM

CCc1nsc(-c2ccc(F)c(NCC(=O)N3CCc4c(N5CCC(O)C5)cccc43)c2)n1 (stereo not shown) [Example 71, 2-((5-(3-ethyl-1,2,4-thiadiazol-5-yl)-2-fluorophenyl)amino)-1-(4-(3-hydroxypyrrolidin-1-yl)indolin-1-yl)ethan-1-one]
IC50: 0.0001 to 0.019 µM

Cc1ccc(-c2nc(Br)ns2)cc1NCC(=O)N1CCc2c(OCC(C)(C)O)cccc21 [Example 14]
IC50: 0.0001 to 0.019 µM

Cc1nsc(-c2ccc(C)c(NCC(=O)N3CCc4c(N5CCC6(CC5)COC6)cccc43)c2)n1 [Example 23, 1-(4-(2-oxa-7-azaspiro[3.5]nonan-7-yl)indolin-1-yl)-2-((2-methyl-5-(3-methyl-1,2,4-thiadiazol-5-yl)phenyl)-amino)ethan-1-one]
IC50: 0.0001 to 0.019 µM

Cc1ccc(-c2ccc(F)c(NCC(=O)N3CCc4c(OCC(C)(C)O)cccc43)c2)o1 [Example 43, 2-((2-fluoro-5-(5-methylfuran-2-yl)phenyl)amino)-1-(4-(2-hydroxy-2-methylpropoxy)-indolin-1-yl)ethan-1-one]
IC50: 0.02 to 0.039 µM

COc1cc2[nH]cc(C(=O)CNc3cc(-c4nc(C)ns4)ccc3OC)c2cc1F [Example 94, 1-(5-fluoro-6-methoxy-1H-indol-3-yl)-2-((2-methoxy-5-(3-methyl-1,2,4-thiadiazol-5-yl)phenyl)amino)ethan-1-one]
IC50: 0.0001 to 0.019 µM

CCc1noc(-c2ccc(C)c(NCC(=O)c3cn(C)c4ccccc34)c2)n1 [Example 111, 2-((5-(3-ethyl-1,2,4-oxadiazol-5-yl)-2-methylphenyl)amino)-1-(1-methyl-1H-indol-3-yl)ethan-1-one]
IC50: 0.04 to 0.069 µM

COc1nccc2c(C(=O)CNc3cc(-c4nc(C)ns4)ccc3C)c[nH]c12 [Example 110, 1-(7-methoxy-1H-pyrrolo[2,3-c]pyridin-3-yl)-2-((2-methyl-5-(3-methyl-1,2,4-thiadiazol-5-yl)phenyl)amino) ethan-1-one]
IC50: 0.02 to 0.039 µM

Cc1nsc(-c2ccc(C)c(NCC(=O)N3CCc4c3cccc4C(C)(C)OC(=O)C(O)CO)c2)n1 (stereo not shown) [Example 67, 2-(1-((2-methyl-5-(3-methyl-1,2,4-thiadiazol-5-yl)phenyl)glycyl)indolin-4-yl)propan-2-yl 2,3-dihydroxy-propanoate]
IC50: 0.02 to 0.039 µM

CCc1noc(-c2ccc(OC)c(NCC(=O)c3c[nH]c4cc(OC)c(F)cc34)c2)n1 [Example 97, 2-((5-(3-ethyl-1,2,4-oxadiazol-5-yl)-2-methoxyphenyl)amino)-1-(5-fluoro-6-methoxy-1H-indol-3-yl) ethan-1-one]
IC50: 0.0001 to 0.019 µM

Cc1ccc(-c2ccc(C)c(NCC(=O)N3CCc4c(-c5c[nH]cn5)cccc43)c2)o1 [Example 73, 1-(4-(1H-imidazol-4-yl)indolin-1-yl)-2-((2-methyl-5-(5-methylfuran-2-yl)phenyl)amino)ethan-1-one]
IC50: 0.04 to 0.069 µM

Cc1nsc(-c2ccc(C)c(NCC(=O)N3CCc4c3cccc4N(S(C)(=O)=O)S(C)(=O)=O)c2)n1 [Example 78, N-(1-((2-methyl-5-(3-methyl-1,2,4-thiadiazol-5-yl)phenyl)glycyl)indolin-4-yl)-N-(methylsulfonyl) methanesulfonamide]
IC50: 0.0001 to 0.019 µM
